The values that follow come from patent US8148373B2, “Compounds” (AstraZeneca AB, priority 2008, dated 2012).

For test [1], the target named is T1, Adrenergic β2 (H292 cells) (Homo sapiens, UniProt P07550).
T1 construct: endogenous in cells; host or cells: H292 cells
Briefly: Assay for Adrenergic β2 Mediated cAMP Production (concentration response, AlphaScreen cAMP detection). It counts as cell-based. To be noted: for EC50: cAMP production, 60 minutes at room temperature, 300 μM rolipram, read-out: β2 pEC50 (converted); for β2 Intrinsic activity: fraction relative to the maximum activity determined for formoterol. As to the method: Assay for Adrenergic β2 Mediated Camp Production
H292 cells are grown in 225 cm2 flasks incubator at 37° C., 5% CO2 in RPMI medium containing 10% (v/v) FBS (foetal bovine serum) and 2 mM L-glutamine.
Adherent H292 cells are removed from tissue culture flasks by treatment with Accutase™ cell detachment solution for 15 minutes. Flasks are incubated for 15 minutes in a humidified incubator at 37° C., 5% CO2. Detached cells are re-suspended in RPMI media (containing 10% (v/v) FBS and 2 mM L-glutamine) at 0.1×10^6 cells per mL. 10000 cells in 100 μL are added to each well of a tissue-culture-treated 96-well plate and the cells incubated overnight in a humidified incubator at 37° C., 5% CO2. The culture media is removed and cells are washed twice with 100 μL assay buffer and replaced with 50 μL assay buffer (HBSS solution containing 10 mM HEPES pH7.4 and 5 mM glucose). Cells are rested at room temperature for 20 minutes after which time 25 μL of rolipram (1.2 mM made up in assay buffer containing 2.4% (v/v) dimethylsulphoxide) is added. Cells are incubated with rolipram for 10 minutes after which time test compounds are added and the cells are incubated for 60 minutes at room temperature. The final rolipram concentration in the assay is 300 μM and final vehicle concentration is 1% (v/v) dimethylsulphoxide. The reaction is stopped by removing supernatants, washing once with 100 μL assay buffer and replacing with 50 μL lysis buffer. The cell monolayer is frozen at −80° C. for 30 minutes (or overnight).
AlphaScreen™ cAMP Detection
The concentration of cAMP (cyclic adenosine monophosphate) in the cell lysate is determined using AlphaScreen™ methodology. The frozen cell plate is thawed for 20 minutes on a plate shaker then 10 μL of the cell lysate is transferred to a 96-well white plate. 40 μL of mixed AlphaScreen™ detection beads pre-incubated with biotinylated cAMP, is added to each well and the plate incubated at room temperature for 3 hours in the dark. The AlphaScreen™ signal is measured using an EnVision spectrophotometer (Perkin-Elmer Inc.) with the recommended manufacturer's settings. cAMP concentrations are determined by reference to a calibration curve determined in the same experiment using standard cAMP concentrations. Concentration response curves for agonists are constructed and data is fitted to a four parameter logistic equation to determine both the pEC50 and Intrinsic Activity. Intrinsic Activity is expressed as a fraction relative to the maximum activity determined for formoterol in each experiment.
(In general: In Alpha technology, singlet oxygen from a donor bead excites a nearby acceptor bead.)

The target in test [2] is T2, human muscarinic acetylcholine M3 receptor (M3-ACh) (Homo sapiens, UniProt P20309).
T2 construct: expressed in transfected cells; host or cells: CHO-K1 (Chinese Hamster Ovary) cell membranes
Briefly: Muscarinic 3 Receptor Binding Assay ([3H]NMS competition, SPA). As to conditions: [3H]NMS 0.1 nM, CHO-K1 cell membranes, 16 hours at room temperature; read-out: M3 pIC50 (converted). As to the method: Muscarinic 3 Receptor Binding Assay
The affinity (pIC50) of compounds binding to the M3 receptor is determined by competition binding of [^3H]N-methyl scopolamine (NMS) to CHO-K1 (Chinese Hamster Ovary) cell membranes expressing the human muscarinic acetylcholine M3 receptor (M3-ACh) in a scintillation proximity assay (SPA) format.
SPA beads are precoated with membranes and then incubated at 2 mg of beads per well with serial dilutions of compounds of the invention, [^3H]NMS at 0.1 nM, quarter Kd (experimentally determined dissociation constant) and assay buffer (20 mM HEPES pH 7.4 containing 5 mM MgCl2). The assay is conducted in a final volume of 200 μL, in the presence of 1% (v/v) dimethyl sulphoxide (DMSO). Total binding of [^3H]NMS is determined in the absence of competing compound and non-specific binding of [^3H]NMS is determined in the presence of 1 μM atropine. The plates are incubated for 16 hours at room temperature and then read on Wallac Microbeta™ using a normalised ^3H protocol. The pIC50, defined as the negative logarithm of the molar concentration of compound required for 50% reduction in specific [^3H]-NMS binding, is determined.

Where a name gives a salt, the structure may show the parent alone.

T2 sequence (P20309 whole entry): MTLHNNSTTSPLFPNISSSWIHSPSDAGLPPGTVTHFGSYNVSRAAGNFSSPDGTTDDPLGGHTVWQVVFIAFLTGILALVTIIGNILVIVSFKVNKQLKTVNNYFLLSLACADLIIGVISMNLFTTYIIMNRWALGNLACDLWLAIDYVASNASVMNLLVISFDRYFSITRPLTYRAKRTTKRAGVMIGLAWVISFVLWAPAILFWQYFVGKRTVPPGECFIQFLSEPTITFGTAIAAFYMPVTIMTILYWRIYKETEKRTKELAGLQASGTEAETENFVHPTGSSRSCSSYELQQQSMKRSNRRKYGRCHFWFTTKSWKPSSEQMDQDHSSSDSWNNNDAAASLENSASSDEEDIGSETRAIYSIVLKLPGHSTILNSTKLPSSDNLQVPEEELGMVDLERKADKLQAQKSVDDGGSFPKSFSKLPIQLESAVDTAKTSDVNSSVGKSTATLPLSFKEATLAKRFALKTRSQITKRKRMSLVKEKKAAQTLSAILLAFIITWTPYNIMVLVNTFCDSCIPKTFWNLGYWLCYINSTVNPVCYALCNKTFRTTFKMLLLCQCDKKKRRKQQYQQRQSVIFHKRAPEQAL
T1 sequence (P07550 whole entry): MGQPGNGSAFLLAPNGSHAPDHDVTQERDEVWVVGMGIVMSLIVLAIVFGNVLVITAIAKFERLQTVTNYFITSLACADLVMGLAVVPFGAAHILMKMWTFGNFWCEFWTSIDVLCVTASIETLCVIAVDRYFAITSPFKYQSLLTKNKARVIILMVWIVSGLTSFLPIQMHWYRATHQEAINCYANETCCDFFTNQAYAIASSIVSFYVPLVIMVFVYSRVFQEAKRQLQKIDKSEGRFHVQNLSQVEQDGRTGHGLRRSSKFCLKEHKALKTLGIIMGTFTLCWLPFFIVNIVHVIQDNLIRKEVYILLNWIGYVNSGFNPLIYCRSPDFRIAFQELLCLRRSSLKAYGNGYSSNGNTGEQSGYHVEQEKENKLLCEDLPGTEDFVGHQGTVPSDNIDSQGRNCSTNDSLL

With `CC(C)c1nc(C(=O)N2CCOC3(CCN(CCOc4ccc(CNC[C@H](O)c5ccc(O)c6[nH]c(=O)sc56)cc4)CC3)C2)cs1` [Example 108, (R)-4-Hydroxy-7-(1-hydroxy-2-(4-(2-(4-(2-isopropylthiazole-4-carbonyl)-1-oxa-4,9-diazaspiro[5.5]undecan-9-yl)ethoxy)benzylamino)ethyl)benzo[d]thiazol-2(3H)-one formate], in test [1], the EC50 is 126 nM and the “β2 Intrinsic activity” value was determined as 0.9. Also, the IC50 in test [2] is 3.98 nM.
For the compound `CC(C)c1nc(C(=O)N2CCOC3(CCN(Cc4cc(F)cc(CCNC[C@H](O)c5ccc(O)c6[nH]c(=O)sc56)c4)CC3)C2)cs1` [Example 42, (R)-7-(2-(3-Fluoro-5-((4-(2-isopropylthiazole-4-carbonyl)-1-oxa-4,9-diazaspiro[5.5]undecan-9-yl)methyl)phenethylamino)-1-hydroxyethyl)-4-hydroxybenzo[d]thiazol-2(3H)-one ditrifluoroacetate], in test [1], the EC50 was 7.94 nM and the “β2 Intrinsic activity” value was 1. For the same compound, the IC50 in test [2] was 0.631 nM.
`O=C(c1csc(-c2ccccc2)n1)N1CCOC2(CCN(Cc3cc(F)cc(CCNC[C@H](O)c4ccc(O)c5[nH]c(=O)sc45)c3)CC2)C1` [Example 41, (R)-7-(2-(3-Fluoro-5-((4-(2-phenylthiazole-4-carbonyl)-1-oxa-4,9-diazaspiro[5.5]undecan-9-yl)methyl)phenethylamino)-1-hydroxyethyl)-4-hydroxybenzo[d]thiazol-2(3H)-one ditrifluoroacetate]: in test [1], the EC50 is 6.31 nM and the “β2 Intrinsic activity” value came out at 1.1. Further, in test [2], the IC50 was 126 nM.
For the compound `CC(C)c1nc(C(=O)N2CCOC3(CCN(CCCCCCSCCNC[C@H](O)c4ccc(O)c5[nH]c(=O)sc45)CC3)C2)cs1` [Example 101, (R)-4-Hydroxy-7-(1-hydroxy-2-(2-(6-(4-(2-isopropylthiazole-4-carbonyl)-1-oxa-4,9-diazaspiro[5.5]undecan-9-yl)hexylthio)ethylamino)ethyl)benzo[d]thiazol-2(3H)-one formate], in test [1], the EC50 is 158 nM and the “β2 Intrinsic activity” value came out at 1. Also, in test [2], the IC50 was 0.316 nM.
As to `Cc1nc(C(=O)N2CCOC3(CCN(CCc4ccc(CNC[C@H](O)c5ccc(O)c6[nH]c(=O)sc56)s4)CC3)C2)cs1` [Example 21, (R)-4-Hydroxy-7-(1-hydroxy-2-((5-(2-(4-(2-methylthiazole-4-carbonyl)-1-oxa-4,9-diazaspiro[5.5]undecan-9-yl)ethyl)thiophen-2-yl)methylamino)ethyl)benzo[d]thiazol-2(3H)-one ditrifluoroacetate], in test [1], the EC50 is 200 nM and the “β2 Intrinsic activity” value is reported as 0.5. Also, the IC50 in test [2] is 1 nM.
Taken in the same sequence, the figures for `Cc1nc(C(=O)N2CCOC3(CCN(Cc4cc(F)cc(CCNC[C@H](O)c5ccc(O)c6[nH]c(=O)ccc56)c4)CC3)C2)cs1` [Example 28, (R)-5-(2-(3-Fluoro-5-((4-(2-methylthiazole-4-carbonyl)-1-oxa-4,9-diazaspiro[5.5]undecan-9-yl)methyl)phenethylamino)-1-hydroxyethyl)-8-hydroxyquinolin-2(1H)-one ditrifluoroacetate] were 10 nM, 1 and 2.51 nM.
On to `CCCc1nc(C(=O)N2CCOC3(CCN(Cc4cccc(CCNC[C@H](O)c5ccc(O)c6[nH]c(=O)sc56)c4)CC3)C2)cs1` [Example 87, (R)-4-Hydroxy-7-(1-hydroxy-2-(3-((4-(2-propylthiazole-4-carbonyl)-1-oxa-4,9-diazaspiro[5.5]undecan-9-yl)methyl)phenethylamino)ethyl)benzo[d]thiazol-2(3H)-one ditrifluoroacetate], for which, in test [1], the EC50 is 3.16 nM and the “β2 Intrinsic activity” value was found to be 0.9. In test [2], the IC50 is 0.501 nM.
On the same counts, the results for `O=C(c1csc(C2CCC2)n1)N1CCOC2(CCN(Cc3cc(F)cc(CCNC[C@H](O)c4ccc(O)c5[nH]c(=O)sc45)c3)CC2)C1` [Example 58, (R)-7-(2-(3-((4-(2-Cyclobutylthiazole-4-carbonyl)-1-oxa-4,9-diazaspiro[5.5]undecan-9-yl)methyl)-5-fluorophenethylamino)-1-hydroxyethyl)-4-hydroxybenzo[d]thiazol-2(3H)-one ditrifluoroacetate] are 10 nM, 0.9 and 6.31 nM.
Consider `O=C(c1csc(CC(F)(F)F)n1)N1CCOC2(CCN(Cc3cccc(CCNC[C@H](O)c4ccc(O)c5[nH]c(=O)sc45)c3F)CC2)C1` [Example 67, (R)-7-(2-(2-Fluoro-3-((4-(2-(2,2,2-trifluoroethyl)thiazole-4-carbonyl)-1-oxa-4,9-diazaspiro[5.5]undecan-9-yl)methyl)phenethylamino)-1-hydroxyethyl)-4-hydroxybenzo[d]thiazol-2(3H)-one ditrifluoroacetate], for which, in test [1], the EC50 is 15.8 nM and the “β2 Intrinsic activity” value was 0.9. The IC50 in test [2] is 3.16 nM.
Take `Cc1nc(C(=O)N2CCOC3(CCN(Cc4cccc(CCNC[C@H](O)c5ccc(O)c6[nH]c(=O)sc56)c4)CC3)C2)cs1` [Example 6, (R)-4-Hydroxy-7-(1-hydroxy-2-(3-((4-(2-methylthiazole-4-carbonyl)-1-oxa-4,9-diazaspiro[5.5]undecan-9-yl)methyl)phenethylamino)ethyl)benzo[d]thiazol-2(3H)-one ditrifluoroacetate]: in test [1], the EC50 was 3.98 nM and the “β2 Intrinsic activity” value is 0.9. In test [2], the IC50 was 0.316 nM.
Turning to `Cc1ccc(C(=O)N2CCOC3(CCN(CCOc4ccc(CNC[C@H](O)c5ccc(O)c6[nH]c(=O)sc56)cc4)CC3)C2)s1` [Example 110, (R)-4-Hydroxy-7-(1-hydroxy-2-(4-(2-(4-(5-methylthiophene-2-carbonyl)-1-oxa-4,9-diazaspiro[5.5]undecan-9-yl)ethoxy)benzylamino)ethyl)benzo[d]thiazol-2(3H)-one formate], in test [1], the EC50 was 63.1 nM and the “β2 Intrinsic activity” value came out at 0.8. In addition, the IC50 in test [2] is 20 nM.
Taken in the same sequence, the figures for `CC(C)c1nc(C(=O)N2CC(F)(F)OC3(CCN(Cc4cc(CCNC[C@H](O)c5ccc(O)c6[nH]c(=O)ccc56)cs4)CC3)C2)cs1` [Example 51, (R)-5-(2-(2-(5-((2,2-Difluoro-4-(2-isopropylthiazole-4-carbonyl)-1-oxa-4,9-diazaspiro[5.5]undecan-9-yl)methyl)thiophen-3-yl)ethylamino)-1-hydroxyethyl)-8-hydroxyquinolin-2(1H)-one ditrifluoroacetate] were 3.16 nM, 0.9 and 15.8 nM.
As to `CC(C)c1nc(C(=O)N2CCOC3(CCN(Cc4ccc(Cl)c(CCNC[C@H](O)c5ccc(O)c6[nH]c(=O)sc56)c4)CC3)C2)cs1` [Example 75, (R)-7-(2-(2-Chloro-5-((4-(2-isopropylthiazole-4-carbonyl)-1-oxa-4,9-diazaspiro[5.5]undecan-9-yl)methyl)phenethylamino)-1-hydroxyethyl)-4-hydroxybenzo[d]thiazol-2(3H)-one ditrifluoroacetate], in test [1], the EC50 was 25.1 nM and the “β2 Intrinsic activity” value is 0.8. Further, in test [2], the IC50 was 2 nM.
